# Assay results taken from patent publication US20240409585A1, “MACROCYCLIC IMMUNOMODULATORS” (priority 2021, published 2024).
# Bridge positions count the residues as written; N and C are the ends. Square brackets hold non-standard residues; d marks the D form. Peptide text beside a SMILES is read from it. * marks the point of attachment. ξ: configuration not given here. Trp(7-Me) = Cc1cccc2c(C[C@H](N)C(=O)O)c[nH]c12; Bip = N[C@@H](Cc1ccc(-c2ccccc2)cc1)C(=O)O; Phe(3-Me) = Cc1cccc(C[C@H](N)C(=O)O)c1; 4Pal = N[C@@H](Cc1ccncc1)C(=O)O; AllylGly = C=CC[C@H](N)C(=O)O; Pip = O=C(O)[C@@H]1CCCCN1; Carboxymethyl = O=C(O)C*; NMeA = CN[C@@H](C)C(=O)O; Dab = NCC[C@H](N)C(=O)O; ξC = NC(CS)C(=O)O
# Target: T1, PE-labeled human PD-L1-Ig binding to Jurkat cell line over-expressing human PD-1 (Jurkat-PD-1) (Homo sapiens, UniProt Q15116)
# T1 construct: expressed in transfected cells; host or cells: Jurkat
# Experiment: Jurkat-PD-1 Cell Binding High-Content Screening Assay (CBA): Method 1
# Details: Jurkat-hPD-1 cells, PE-labeled PD-L1-Ig 20 nM final; read-out: Jurkat HPDL1 PD1 IC50 (uM) (Method 1)
# T1 sequence (Q15116 25-288): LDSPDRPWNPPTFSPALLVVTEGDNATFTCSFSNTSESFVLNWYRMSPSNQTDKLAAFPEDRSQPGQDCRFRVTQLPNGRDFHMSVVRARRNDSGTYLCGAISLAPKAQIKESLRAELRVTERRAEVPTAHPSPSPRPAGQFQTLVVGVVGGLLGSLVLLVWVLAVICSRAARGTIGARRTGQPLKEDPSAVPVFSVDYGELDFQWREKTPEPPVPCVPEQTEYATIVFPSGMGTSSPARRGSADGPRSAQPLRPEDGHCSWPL
row,Compound,IC50 [µM]
1,C=CC[C@@H]1NC(=O)[C@H](CC(C)C)NC(=O)[C@H](CC(N)=O)NC(=O)[C@@H](CC(C)C)NC(=O)[C@H](C)N(C)C(=O)[C@H](C(C)C)NC(=O)[C@H](Cc2ccc(-c3ccccc3)cc2)NC(=O)[C@H](CC=C)NC(=O)[C@H](Cc2cccc(C)c2)NC(=O)[C@H](CC(=O)O)NC(=O)[C@H](Cc2ccncc2)NC(=O)[C@H](Cc2ccc(OCC(=O)O)cc2)NC(=O)CSCC(C(=O)NCC(N)=O)NC(=O)[C@H](CO)NC1=O (stereo partly drawn) [Compound 1882] ({CH2CO}-Y(Carboxymethyl)[4Pal]D[Phe(3-Me)][AllylGly][Bip]V[NMeA][dL]NL[AllylGly]S[ξC]G-NH2; thioether N-14),0.03
2,Cc1cccc2c(C[C@@H]3NC(=O)[C@H](CC(=O)O)NC(=O)[C@H](Cc4ccc(O)cc4)NC(=O)[C@H](Cc4ccccc4)NC(=O)CSC[C@@H](C(=O)N[C@@H](C)C(N)=O)NC(=O)[C@H]([C@@H](C)O)NC(=O)[C@H](C(C)C)NC(=O)[C@H](CC(C)C)NC(=O)[C@H](CCN)NC(=O)[C@@H](CC(C)C)NC(=O)[C@H](C)N(C)C(=O)[C@H](CCCNC(=N)N)NC(=O)[C@H](Cc4ccc(-c5ccccc5)cc4)NC(=O)[C@H](C(C)C)NC3=O)c[nH]c12 [Compound 1201] ({CH2CO}-FYD[Trp(7-Me)]V[Bip]R[NMeA][dL][Dab]LVTCA-NH2; thioether N-14),0.56
3,CC(C)C[C@@H]1NC(=O)[C@H](CCN)NC(=O)[C@@H](CC(C)C)NC(=O)[C@H](C)N(C)C(=O)[C@H](CCCNC(=N)N)NC(=O)[C@H](Cc2ccc(-c3ccccc3)cc2)NC(=O)[C@H](C(C)C)NC(=O)[C@H](Cc2c[nH]c3ccccc23)NC(=O)[C@H](CC(=O)O)NC(=O)[C@H](Cc2ccc(O)cc2)NC(=O)[C@H](CC(N)=O)NC(=O)CSC[C@@H](C(=O)NCC(N)=O)NC(=O)[C@H](CO)NC(=O)[C@H](C(C)C)NC1=O [Compound 1247] ({CH2CO}-NYDWV[Bip]R[NMeA][dL][Dab]LVSCG-NH2; thioether N-14),0.06
4,CC(C)C[C@@H]1NC(=O)[C@H](CCCNC(=N)N)NC(=O)[C@@H](CC(C)C)NC(=O)[C@H](C)N(C)C(=O)[C@H](CCC(=O)O)NC(=O)[C@H](Cc2ccc(-c3ccccc3)cc2)NC(=O)[C@H](C(C)C)NC(=O)[C@H](Cc2c[nH]c3ccccc23)NC(=O)[C@H](CC(=O)O)NC(=O)[C@H](Cc2ccc(O)cc2)NC(=O)[C@H](Cc2ccccc2)NC(=O)CSC[C@@H](C(=O)N[C@@H](CCC(=O)O)C(N)=O)NC(=O)[C@H]([C@@H](C)O)NC(=O)[C@H](C(C)C)NC1=O [Compound 1135] ({CH2CO}-FYDWV[Bip]E[NMeA][dL]RLVTCE-NH2; thioether N-14),0.14
5,CC[C@H](C)[C@@H]1NC(=O)[C@H](Cc2ccc(-c3ccccc3)cc2)NC(=O)[C@H](C(C)C)NC(=O)[C@H](Cc2c[nH]c3ccccc23)NC(=O)[C@H](CC(=O)O)NC(=O)[C@H](Cc2ccc(O)cc2)NC(=O)[C@H](CC(N)=O)NC(=O)CSC[C@@H](C(=O)N[C@@H](C)C(N)=O)NC(=O)[C@H]([C@@H](C)O)NC(=O)[C@H](C(C)C)NC(=O)[C@H](CC(C)C)NC(=O)[C@H](CCN)NC(=O)[C@@H](CC(C)C)NC(=O)[C@@H]2CCCCN2C1=O [Compound 1399] ({CH2CO}-NYDWV[Bip]I[Pip][dL][Dab]LVTCA-NH2; thioether N-14),0.14
6,CC(C)C[C@@H]1NC(=O)[C@H](CCN)NC(=O)[C@@H](CC(C)C)NC(=O)[C@H](C)N(C)C(=O)[C@H](CCC(=O)O)NC(=O)[C@H](Cc2ccc(-c3ccccc3)cc2)NC(=O)[C@H](C(C)C)NC(=O)[C@H](Cc2c[nH]c3ccccc23)NC(=O)[C@H](CC(=O)O)NC(=O)[C@H](Cc2ccc(OCC(=O)O)cc2)NC(=O)[C@H](Cc2ccncc2)NC(=O)CSC[C@@H](C(=O)N[C@@H](C)C(N)=O)NC(=O)[C@H](CO)NC(=O)[C@H](C(C)C)NC1=O [Compound 1575] ({CH2CO}-[4Pal]Y(Carboxymethyl)DWV[Bip]E[NMeA][dL][Dab]LVSCA-NH2; thioether N-14),0.05
